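All cell lines were grown in 96-well plates and treated with compound for 48 hours. GI50 marks 50% less growth.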 Active and inactive are the calls of the source. No stated cut-off is given here; in the data, active = GI50 up to about 1.1 µM and inactive = higher.
How the values were obtained:
Experiment in all cases: growth of human tumour cells (NCI), 48 h
KM-20L2 = system: KM-20L2
M19-MEL = system: M19-MEL
SNB-78 = system: SNB-78
HOP-18 = system: HOP-18
LXFL 529 = system: LXFL 529
DLD-1 = system: DLD-1
DMS-114 = system: DMS-114
XF498 = system: XF498
RXF 631 = system: RXF 631

Measured: GI50

C[C@H](O)CCC(=O)c1ccoc1
inactive: KM-20L2 > 100 µM | M19-MEL > 100 µM | SNB-78 > 100 µM | HOP-18 75 µM | LXFL 529 > 100 µM | DLD-1 > 100 µM | DMS-114 > 100 µM

CC(=O)OCCOCBr
inactive: KM-20L2 > 100 µM | M19-MEL > 100 µM | XF498 > 100 µM | HOP-18 > 100 µM | LXFL 529 > 100 µM | DLD-1 > 100 µM | DMS-114 > 100 µM | RXF 631 > 100 µM

Nc1n/c(=N\c2ccccc2)ss1
inactive: KM-20L2 > 100 µM | M19-MEL 99.5 µM | XF498 > 100 µM | SNB-78 > 100 µM | HOP-18 > 100 µM | LXFL 529 > 100 µM | DLD-1 > 100 µM | DMS-114 > 100 µM | RXF 631 > 100 µM

NC(=S)N1N=C2c3ccccc3CC[C@@H]2[C@@H]1c1ccccc1
inactive: KM-20L2 4.22 µM | M19-MEL 4.97 µM | SNB-78 28.1 µM | HOP-18 20.8 µM | LXFL 529 8.18 µM | DLD-1 6.5 µM | DMS-114 2.45 µM | RXF 631 7.85 µM

O=C1C2C=CC(n3[nH]c(=O)n(Cc4ccccc4)c3=O)CC2C(=O)N1c1ccc(Br)cc1 (centres undefined)
inactive: KM-20L2 > 100 µM | M19-MEL > 100 µM | SNB-78 > 100 µM | HOP-18 > 100 µM | LXFL 529 > 100 µM | DLD-1 > 100 µM | DMS-114 > 100 µM

O=c1[nH]c(=O)n(C2OC(CO)C(O)C2O)cc1OCC(F)(F)F (centres undefined)
inactive: KM-20L2 > 100 µM | M19-MEL > 100 µM | XF498 > 100 µM | SNB-78 > 100 µM | HOP-18 > 100 µM | LXFL 529 > 100 µM | DLD-1 > 100 µM | DMS-114 > 100 µM

COc1ccccc1NC(=O)CC(=O)n1nc(C)c(/N=N/c2ccccc2C(=O)O)c1C
inactive: KM-20L2 > 100 µM | M19-MEL > 100 µM | XF498 > 100 µM | SNB-78 > 100 µM | LXFL 529 > 100 µM | DLD-1 > 100 µM | DMS-114 > 100 µM

CC(C)OCN/C(N)=N\C#N
inactive: KM-20L2 > 100 µM | M19-MEL > 100 µM | XF498 > 100 µM | SNB-78 > 100 µM | HOP-18 > 100 µM | LXFL 529 > 100 µM | DLD-1 59.7 µM | DMS-114 > 100 µM | RXF 631 > 100 µM

Cc1ccc(NC(=O)OCC(COc2ccc(Cl)cc2Cl)OC(=O)Nc2ccc(C)cc2)cc1 (centres undefined)
inactive: KM-20L2 > 100 µM | M19-MEL > 100 µM | SNB-78 > 100 µM | HOP-18 69.5 µM | LXFL 529 81.5 µM | DLD-1 > 100 µM | DMS-114 > 100 µM

CC/C=C/c1cc2cc[nH]c2c2c1C(C)C[C@@H]2C (some centres undefined)
inactive: M19-MEL 27.5 µM | SNB-78 24.9 µM | HOP-18 17.9 µM | LXFL 529 18.3 µM | DLD-1 34.2 µM | DMS-114 20.6 µM

COC(=O)/C=C/c1c(CC=C(C)C)ncn1C
inactive: KM-20L2 16.7 µM | M19-MEL 18.8 µM | XF498 41.3 µM | SNB-78 53.2 µM | HOP-18 > 100 µM | LXFL 529 55.1 µM | DLD-1 29.8 µM | DMS-114 5.38 µM | RXF 631 59 µM

CN(C)CCCN1CCc2c([nH]c3ccccc23)C1c1cccnc1 (centres undefined)
inactive: KM-20L2 > 100 µM | M19-MEL > 100 µM | XF498 > 100 µM | SNB-78 > 100 µM | LXFL 529 > 100 µM | DLD-1 > 100 µM | DMS-114 > 100 µM | RXF 631 > 100 µM

O=C(CC1(O)C(=O)Nc2ccccc21)c1ccc(Cl)cc1Cl (centres undefined)
inactive: KM-20L2 > 100 µM | M19-MEL > 100 µM | XF498 > 100 µM | SNB-78 > 100 µM | LXFL 529 > 100 µM | DLD-1 > 100 µM | DMS-114 > 100 µM | RXF 631 > 100 µM

C[C@]12CC[C@@H]3c4ccc(O)cc4CC[C@H]3[C@@H]1CC[C@@H]2OC(=O)CCC1CCCC1 [ESTRADIOL CYPIONATE]
inactive: KM-20L2 17.7 µM | M19-MEL 27.4 µM | XF498 18.9 µM | SNB-78 56.9 µM | HOP-18 20.3 µM | LXFL 529 17.5 µM | DLD-1 33 µM | DMS-114 30.8 µM

— ChEMBL document CHEMBL1201862, “PubChem BioAssay data set” (2004)
